Assay results: PMC10336670 (Saudi Pharmaceutical Journal : SPJ, 2023)

Molecular target: urease enzyme (Canavalia ensiformis, UniProt P07374)
Type: biochemical

Chain of urease enzyme (P07374 whole entry, looked up): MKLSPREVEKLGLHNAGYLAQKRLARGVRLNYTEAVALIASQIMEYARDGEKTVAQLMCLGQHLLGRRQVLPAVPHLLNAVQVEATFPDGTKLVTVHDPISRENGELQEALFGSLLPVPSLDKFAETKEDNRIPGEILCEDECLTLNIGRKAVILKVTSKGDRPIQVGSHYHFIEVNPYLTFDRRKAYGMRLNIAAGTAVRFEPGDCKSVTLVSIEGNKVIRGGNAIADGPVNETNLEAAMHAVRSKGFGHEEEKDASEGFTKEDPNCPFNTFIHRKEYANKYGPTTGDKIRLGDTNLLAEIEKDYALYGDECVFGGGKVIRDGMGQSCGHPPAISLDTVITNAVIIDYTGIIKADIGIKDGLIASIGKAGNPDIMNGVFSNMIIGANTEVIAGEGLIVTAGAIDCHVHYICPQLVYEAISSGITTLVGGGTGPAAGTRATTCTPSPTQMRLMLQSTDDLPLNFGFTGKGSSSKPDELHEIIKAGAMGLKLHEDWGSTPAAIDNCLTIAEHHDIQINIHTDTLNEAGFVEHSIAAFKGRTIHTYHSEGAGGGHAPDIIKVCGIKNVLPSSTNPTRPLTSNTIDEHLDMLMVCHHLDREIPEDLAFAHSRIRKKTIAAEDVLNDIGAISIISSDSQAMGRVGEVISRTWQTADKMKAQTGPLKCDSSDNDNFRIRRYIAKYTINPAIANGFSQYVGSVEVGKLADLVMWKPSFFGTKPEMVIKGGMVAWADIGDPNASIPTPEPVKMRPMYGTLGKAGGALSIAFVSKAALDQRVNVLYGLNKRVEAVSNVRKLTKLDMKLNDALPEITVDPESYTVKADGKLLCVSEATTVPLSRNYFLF

| SMILES | potency as urease inhibitor compared to the standard drug thiourea |
| --- | --- |
| Fc1ccc2ncc(/C=N\Nc3nc(-c4ccc(-c5ccccc5)cc4)co3)n2c1 [4c, (Z)-4-([1,1'-biphenyl]-4-yl)-2-(2-((6-fluoroimidazo[1,2-a]pyridin-3-yl)methylene)hydrazineyl)oxazole] | three-fold least potent |
| Cc1ccc(-c2ccc(-c3coc(N/N=C\c4cnc5ccc(F)cn45)n3)cc2)cc1 [4f, (Z)-2-(2-((6-fluoroimidazo[1,2-a]pyridin-3-yl)methylene)hydrazineyl)-4-(4'-methyl-[1,1'-biphenyl]-4-yl)oxazole] | three-fold least potent |
| Cc1ccccc1-c1coc(N/N=C\c2cnc3ccc(F)cn23)n1 [4p, (Z)-2-(2-((6-fluoroimidazo[1,2-a]pyridin-3-yl)methylene)hydrazineyl)-4-(o-tolyl)oxazole] | three-fold least potency |
| CN(C)c1ccc(-c2coc(N/N=C\c3cnc4ccc(F)cn34)n2)cc1 [4 l, (Z)-4-(2-(2-((6-fluoroimidazo[1,2-a]pyridin-3-yl)methylene)hydrazineyl)oxazol-4-yl)-N,N-dimethylaniline] | three-fold least potency |
